EP0590563A1, “Biotin amides, a process for their preparation and therapeutical compositions containing them as the active principles for the treatment of diabetes and relative complicating diseases” (LIFEGROUP S.p.A., priority 1992, dated 1994)
Where two headings read alike, the source gives them in different places. Blank lines part the entries; values can stand above or below the compound they belong to.

Key:
diabetic patients = settings: 16mg/die for 1 week, insulin treatment interrupted; cited from earlier work
neuropathy = settings: intramuscular for 6 weeks, with oral daily dose of 5 mg for about 2 years; cited from earlier work
[1] = test system: genetically diabetic mice KK; settings: 2mg/kg for 14 days; cited from earlier work
[2] = background statement, in words; cited from earlier work
hepatic glucokinase [3] = test: Ex vivo hepatic glucokinasic activity, Experiment A; format: in vivo, Wistar rats; settings: for Glucokinasic activity: 3 mg/kg i.p. after 24 hours without food, sacrifice after 6 hours, mean ± stan. deviation
Protocol: This experiment is carried out following to Chauhan et al. process (J. Biol. Chem. 266, 10035, 1991), according to this process, hepatic glucokinase in the rat, which activity is depressed by food absence is reactivated by the biotin action. 15 Wistar rats weighing on average 250 g are divided into three groups, the first one represent the controls, the second one is treated by intraperitoneal route with biotin (3 mg/kg) and the third group with biotinylethanolamine (3 mg/kg) again by intraperitoneal route. Rats are treated after 24 hours without food and after 6 hours are sacrificed by decapitation. Livers are homogenized in 5 volumes 50 mM Tris at pH 7, 0.15 M KCl, 5 mM EGTA, 4 mM MgCl₂, and 2 mM dithiothreitol and centrifugated at 100.000 x g for 60 minutes. The surnatant, frozen to -80 °C, is used for the analyses, after identifying proteins according to Bradford method (Anal. Biochem. 72, 248, 1976). Glucokinase is dosed by spectrophotometry according to Dakshinamurti et al. (Can. J. Biochem. 46, 75, 1968) with the following results: […]

[4] = test system: diabetes induced by streptozotocin; test: Experimental diabetes induced by streptozotocin; format: in vivo, male Wistar rats; settings: for AcAc: Aceto Acetate
Protocol: The derivatives are then tested in order to define their biologic activity in experimental conditions of hyperglycemia induced both by food absence and by diabetes induced by streptozotocin. Hepatic glucokinase activity is examined in the experimental condition of food absence. Glycemia, insulinemia and the levels of Aceto Acetate (Ac.Ac.) are examined in the diabetes induced by streptozotocin.
10 male Wistar rats (200 g) are divided into 4 groups, the first group is composed by the controls, to the remaining groups streptozotocin is injected by intraperitoneal route (80 mg/kg). The third group is furthermore treated with biotin (3 mg/kg) by intraperitoneal route, and the fourth group with biotinyl ethanolamide (3 mg/kg) again by intraperitoneal route. The treatment is repeated for three days, then a blood sample is taken for analysis on the fifth day from the initial treatment.

hepatic glucokinase [5] = test: Ex vivo hepatic glucokinasic activity, Experiment B; format: in vivo, Sprague Dawley rat; settings: 2 mg/kg i.p., rats without food for 24 hours, 3 hours after the treatment
Protocol: Also this experiment, like the previous one, is carried out by following Chauhan et al. process (J. Biol. Chem. 266, 10035, 1991), according to this process, hepatic glucokinase in the rat, which activity is depressed by food absence and it is reactivated by the biotin action.
Sprague Dawley rat weighing on average 260 g left without food for 24 hours, are divided into 15 groups, each of 13 groups are respectively intraperitoneally treated with 2 mg/kg of one of the compounds of the present invention hereinbelow reported in Table 1 or with the same dosage of biotin, all these substances being previously dissolved in physiological solutions. The obtained results are compared with those of the two groups corresponding to normal rats feeded ad libitum and with untreated rats left without food for 24 hours, all the animals had free admission to water.
3 hours after the treatment the rats are sacrificed by cerebral displacement. […] The homogenates are centrifugated at 100.000 x g for 60 minutes.Their proteic concentration is determined according to the above mentioned Bradford method (Anal. Biochem. 72, 248, 1976).
Glucokinase activity is evaluated according to Dakshinamurti et al. (Can. J. Biochem. 46, 75, 1968), and expressed as arbitrary units /proteic concentration of the samples.

[6] = solubility in organic solvents; format: physicochemical; settings: organic solvent or mixture
solubility in water = format: physicochemical; settings: for solubility in water: result in words
[7] = streptozotocin 80 mg/kg i.p., test substance 3 mg/kg i.p. for three days, blood sample on the fifth day
[8] = result in words, 3 mg/kg i.p., streptozotocin rats
[9] = aqueous buffer, in 0.1M phosphate buffer at pH 7.4

solubility ([6]; in DMSO): > 10000 µg/mL
solubility (solubility in water; [9]): > 10000 µg/mL
Structure (SMILES): O=C(CCCC[C@@H]1SC[C@@H]2NC(=O)N[C@@H]21)N[C@@H](CO)C(=O)O [Example 7, N-β-biotinyl-L-serine]

solubility ([6]; in DMSO): > 10000 µg/mL
solubility (solubility in water; [9]): > 10000 µg/mL
Structure (SMILES): O=C(CCCC[C@@H]1SC[C@@H]2NC(=O)N[C@@H]21)N[C@@H](CS)C(=O)O [Example 12, N-β-biotinyl-L-cysteine]

solubility ([6]; in DMSO): > 10000 µg/mL
solubility (solubility in water; water): > 10000 µg/mL
Structure (SMILES): O=C(CCCC[C@@H]1SC[C@@H]2NC(=O)N[C@@H]21)NCCO [Example 1, N-β-biotinyl-ethanolamine]
Glucokinasic activity (hepatic glucokinase [3]): 4.27 ± 0.45 U./min/protein mg
Glucokinasic activity compared with biotin (hepatic glucokinase [3]; result in words, after 6 hours, 3 mg/kg i.p.): more active than biotin
AcAc [4, 7]: 0 nmol/L
Glycemia [4, 8]: normalized
insulinemia [4, 8]: active
Glycemia [4, 7]: 6.0 ± 0.5 mmol/L
insulinemia [4, 7]: 23.5 ± 1.8 mU/l

solubility ([6]; in DMSO): > 10000 µg/mL
solubility (solubility in water; water): > 10000 µg/mL
Structure (SMILES): CN=C(N)NCCC[C@H](NC(=O)CCCC[C@@H]1SC[C@@H]2NC(=O)N[C@@H]21)C(=O)O [Example 2, N-β-biotinyl-N^G-methyl-L-arginine]

solubility ([6]; in DMSO): > 10000 µg/mL
solubility (solubility in water; water): > 10000 µg/mL
Structure (SMILES): N=C(N)NCCC[C@H](NC(=O)CCCC[C@@H]1SC[C@@H]2NC(=O)N[C@@H]21)C(=O)O [Example 11, N-β-biotinyl-L-arginine]

The next lines start with the compound.

Structure (SMILES): O=C(O)CCCC[C@@H]1SC[C@@H]2NC(=O)N[C@@H]21 [Biotin, biotin]
hematic glucose rate (diabetic patients): significant reduction
conduction velocity at the level of the motor nerves and of the action sensory potentials (neuropathy): slight improvement
subjective neurologic symptoms (neuropathy): marked improvement
glucose tolerance [1]: improved sensibly
solubility in water [2]: poorly soluble in water
Glucokinasic activity (hepatic glucokinase [3]): 3.96 ± 0.70 U./min/protein mg
AcAc [4, 7]: 0 nmol/L
Glycemia [4, 8]: normalized
insulinemia [4, 8]: active
Glycemia [4, 7]: 7.4 ± 0.9 mmol/L
insulinemia [4, 7]: 25.1 ± 1.5 mU/l
glucokinase activity (hepatic glucokinase [5]): 3.662± 0.280 UA/mg proteins

Structure (SMILES): O=C(CCCC[C@@H]1SC[C@@H]2NC(=O)N[C@@H]21)NCCNC(=O)CCCC[C@@H]1SC[C@@H]2NC(=O)N[C@@H]21 [Example 6, N,N'bis-(β-biotinyl)-ethylendiamine]
solubility ([6]; in hot DMSO): > 2000 µg/mL
solubility in water (solubility in water; water): poorly soluble

Structure (SMILES): O=C(CCCC[C@@H]1SC[C@@H]2NC(=O)N[C@@H]21)NC1CCCCC1 [Example 9, N-β-biotinyl-aminocyclohexane]
solubility ([6]; in DMSO): > 10000 µg/mL
solubility in water (solubility in water; water): poorly soluble

Structure (SMILES): CCCCNC(=O)CCCC[C@@H]1SC[C@@H]2NC(=O)N[C@@H]21 [Example 8, N-β-biotinyl-1-aminobutane]
solubility ([6]; in DMSO): > 10000 µg/mL
solubility in water (solubility in water; water): poorly soluble

Structure (SMILES): O=C(CCCC[C@@H]1SC[C@@H]2NC(=O)N[C@@H]21)NCCCCO [Example 5, N-β-biotinyl-4-amino-butanol]
solubility ([6]; in DMSO): > 10000 µg/mL
solubility (solubility in water; water): > 5000 µg/mL

Structure (SMILES): O=C1N[C@H]2[C@H](CS[C@H]2CCCCC(=O)N2CCN(CCO)CC2)N1 [Example 3, N¹-β-biotinyl-N⁴-(2-hydroxyethyl) piperazine hydrochlorate]
solubility ([6]; in DMSO): > 10000 µg/mL
solubility (solubility in water; water): > 10000 µg/mL

Structure (SMILES): O=C(CCCC[C@@H]1SC[C@@H]2NC(=O)N[C@@H]21)NCc1ccc([N+](=O)[O-])cc1 [Example 10, N-β-biotinyl-4-nitrobenzylamine]
solubility ([6]; in DMSO): > 10000 µg/mL
solubility in water (solubility in water; water): poorly soluble

Structure (SMILES): O=C(CCCC[C@@H]1SC[C@@H]2NC(=O)N[C@@H]21)NCc1ccccc1 [Example 4, N-β-biotinyl-benzylamine]
solubility ([6]; in DMSO): > 10000 µg/mL
solubility ([6]; in ethanol): > 10000 µg/mL
solubility in water (solubility in water; water): poorly soluble
